Data set [1] concerns the target T1, α-syn fibrils (Homo sapiens, UniProt P37840).
T1 construct: made in house; host or cells: Escherichia coli BL21 (DE3) gold
The data set is described as follows: SPR binding to immobilized sonicated, filtered α-syn fibrils. The following applies: steady-state, 1:1 binding model, read-out: equilibrium dissociation constant Kd, α-syn fibril. An excerpt: Computational modeling predicted that our candidate peptidic inhibitors bind α-syn fibril seeds and prevent their growth and propagation. To obtain direct evidence of binding of our inhibitors to α-syn fibril seeds, we used surface plasmon resonance (SPR) (Figure 2A). For the SPR experiments, α-syn fibrils were immobilized on a CM5 sensor chip using standard amine coupling chemistry. For immobilization, mature α-syn fibrils were sonicated to form short fragments (Figure 2—figure supplement 1A) and then filtered through a 0.22-micron filter to remove large aggregates, retaining short fibrils (Figure 2—figure supplement 1A). We confirmed that short fibrils generated by sonication retain the ability to seed monomeric α-syn using an in vitro-seeded-aggregation assay. […] We then immobilized the sonicated and filtered α-syn fibrils on a CM5 SPR chip and measured affinities of our peptide inhibitors to the fibrils. […] The equilibrium dissociation constant (Kd) was calculated by steady-state analysis, fitting the data with 1:1 binding model (Figure 2B). […]
Figure 2. […] (B) The equilibrium dissociation constant (Kd) was calculated by fitting the plot of steady-state inhibitor binding levels (SPR signal at steady-state) against inhibitor concentration with 1:1 binding model. […]
For orientation: SPR reads the build-up and loss of mass on a sensor chip optically.

For data set [2], the target named is T2, monomeric α-syn (Homo sapiens, UniProt P37840).
T2 construct: prevent aggregation of full-length α-syn in vitro; made in house; host or cells: Escherichia coli BL21 (DE3) gold
The data set is described as follows: SPR binding to immobilized α-syn monomers. The following applies: Biacore T200, CM5 chip amine coupling, inhibitor 0.5–500 μM, 30 μl/min, PBS pH 7.4, 25°C, steady-state, 1:1 binding model, mean ± SD, performed thrice, read-out: dissociation constant Kd, α-syn monomer.

The conditions of data set [3]: ref Rodriguez et al., 2015; cited from earlier work. The source says: Based on the atomic structure of NACore [68-GAVVTGVTAVA-78] as a template, we applied computational and structure-based approaches to design peptidic inhibitors. […] The inhibitors were designed using Rosetta-based computational modeling to bind to the tip of the steric-zipper protofilament, thereby capping the fibrils (Figure 1A). We identified four candidates; S37, S61, S62 and S71 that are computed to bind favo ...

Like-named read-outs stand apart in the source and are kept apart here. Where a SMILES comes first, the peptide text is derived from it. Where no end group is shown, it is not given here. [ ]: non-standard residue; d: D form. Sar = CNCC(=O)O

Usually Kd stands for a measure of binding affinity in units of concentration.

On to `CC(C)[C@H](NC(=O)CN(C)C(=O)[C@@H](NC(=O)[C@@H](NC(=O)[C@@H](NC(=O)[C@H](C)NC(=O)[C@H](CCCNC(=N)N)NC(=O)[C@H](CCCNC(=N)N)NC(=O)[C@H](CCCNC(=N)N)NC(=O)[C@H](CCC(N)=O)NC(=O)[C@H](CCCNC(=N)N)NC(=O)[C@H](CCCNC(=N)N)NC(=O)[C@H](CCCCN)NC(=O)[C@H](CCCCN)NC(=O)[C@H](CCCNC(=N)N)NC(=O)CNC(=O)[C@@H](N)Cc1ccc(O)cc1)C(C)C)C(C)C)[C@@H](C)O)C(=O)N[C@H](C(=O)N[C@@H](C)C(=O)N[C@H](C(=O)N[C@@H](C)C(=O)N[C@@H](CCC(=O)O)C(=O)O)C(C)C)[C@@H](C)O` [S71] (H-YGRKKRRQRRRAVVT[Sar]VTAVAE-OH), for which the Kd in data set [1] (Biacore T200, CM5 chip amine coupling, inhibitor 0.5–500 μM, 30 μl/min, PBS pH 7.4, 25°C, mean ± SD, performed thrice) is 10.9 ± 0.11 µM; in data set [2] it was 116 ± 11.7 µM.

As to GAVVWGVTAVGRKKRRQRRRPQ [S61], the Kd in data set [1] was 9.28 µM; in data set [2], 62.8 ± 11.7 µM.

Take “AVVTGVTAV [69-AVVTGVTAV-77, smaller 9-residue segment within NACore]”: the “aggregation rate relative to NACore” value in data set [3] is on record as “aggregates slower than NACore”.

These data come from paper PMC6977966, “Inhibition of synucleinopathic seeding by rationally designed inhibitors” (eLife, 2020).
